# Experimental data: patent US9446037B2, “Methods for the treatment of parkinson's disease psychosis using pimavanserin” (ACADIA Pharmaceuticals Inc., priority 2012, dated 2016)
# Experiments:
# [1] = system: Parkinson's disease psychosis (PDP) patients; assay: Phase III six-week randomized double-blind placebo-controlled study in PDP patients; format: in vivo, human
# Experimental: A six-week, multi-center, randomized, double-blind, placebo-controlled study was conducted in PDP patients. The purpose of the study was to evaluate the safety and efficacy of 40 mg pimavanserin compared to placebo in the treatment of PDP.
# A total of 199 patients were enrolled in the study and randomized on a one-to-one basis to receive either 40 mg of pimavanserin or placebo once daily for six weeks, following a two-week screening period including brief psycho-social therapy. Patients also received stable doses of their existing anti-Parkinson's therapy throughout the study.
# At the screening visit, a trained member of the site staff worked with the patient's caregiver to devise a structured plan of social interaction for the patient and caregiver to follow at home. This brief non-pharmacologic psychosocial counseling was intended to help the patient and caregiver to manage the symptoms and provide standard of care prior to the blinded investigational treatment phase. Following the screening visit, patients received two follow-up phone calls (˜3- and 7-days from the screening visit) to review the plan and evaluate progress. Only those patients who met entry criteria at baseline were randomized to receive 40 mg pimavanserin or matching placebo for the 6-week treatment period.
# The maximum duration of the study for each subject was approximately 12 weeks. Pimavanserin was administered in tablet form, once daily by mouth in 40 mg doses (2 tablets of 20 mg). Placebo was administered with visibly matching tablets, using the same route and regimen. The safety of subjects was assessed by monitoring adverse events, physical examinations, vital signs, clinical laboratory tests (hematology, clinical chemistry, and urinalysis), and electrocardiograms.
# Primary Clinical Endpoint: The combined score for the modified 9-item hallucinations and delusions domains of the Scale for the Assessment of Positive Symptoms (SAPS-PD).
# Key Secondary Endpoint: Parts II-III of the Unified Parkinson's Disease Rating Scale (UPDRS), which measures motor function.
# Other Secondary Endpoints: Changes in the Clinical Global Impression Scale (CGI) with emphasis on severity (CGI-S) and improvement (CGI-I) of psychosis.
# Exploratory Endpoints: the Caregiver Burden Scale, and Scales for Outcomes in Parkinson's Disease-Sleep scale (SCOPA-Sleep).
# Note: mixed model repeated measures (MMRM) method was applied in primary analysis of the intent-to-treat (ITT) population. The significance test was based on least-square mean change from baseline for each arm using a 2-sided […]=0.05.
# [2] = system: DOI ((±)-2,5-dimethoxy-4-iodoamphetamine, a serotonin agonist) induced head twitches; conditions: rat; oral doses of 3 and 10 mg/kg; cited from earlier work
# [3] = system: hyperactivity induced by the N-methyl-D-aspartate antagonist MK-801; conditions: mice; oral doses of 3 and 10 mg/kg; cited from earlier work
# [4] = system: gating deficit induced by DOI; conditions: rat; doses of 1 and 3 mg/kg SC; cited from earlier work
# [5] = system: learning of a simple auto-shaped response; conditions: mice; intraperitoneal doses up to 32 mg/kg; cited from earlier work
compound,measurement,setting,value
"CC(C)COc1ccc(CNC(=O)N(Cc2ccc(F)cc2)C2CCN(C)CC2)cc1 [Pimavanserin, N-(1-methylpiperidin-4-yl)-N-(4-fluorophenylmethyl)-N′-(4-(2-methylpropyloxy)phenylmethyl)carbamide]",safety and tolerability in the trial,"[1]; 40 mg once daily oral, 6 weeks",safe and well tolerated
same,SAPS-PD Mean Change at Day 43,"[1]; 40 mg once daily oral, 6 weeks, n = 95, ITT, MMRM least-square mean change from baseline, P-value 0.001 vs placebo",−5.79
same,serious adverse event: urinary tract infection (number of patients),"[1]; 40 mg once daily oral, 6 weeks, placebo 1",3
same,adverse event incidence: falls,"[1]; 40 mg once daily oral, 6 weeks, placebo 8.5%",10.6%
same,adverse event incidence: urinary tract infection,"[1]; 40 mg once daily oral, 6 weeks, placebo 11.7%",13.5%
same,serious adverse event: psychotic disorder (number of patients),"[1]; 40 mg once daily oral, 6 weeks, placebo zero",2
same,CGI-I scale (secondary efficacy measure),"[1]; 40 mg once daily oral, 6 weeks, versus placebo, p=0.001",highly significant improvement
same,Caregiver Burden Scale,"[1]; 40 mg once daily oral, 6 weeks, versus placebo, p=0.002",highly significant improvement
same,daytime wakefulness on SCOPA-sleep scale,"[1]; 40 mg once daily oral, 6 weeks, versus placebo, p=0.012",significant improvements
same,nighttime sleep on SCOPA-sleep scale,"[1]; 40 mg once daily oral, 6 weeks, versus placebo, p=0.045",significant improvements
same,improvement in psychosis at day 43 on SAPS-PD,"[1]; 40 mg once daily oral, day 43, blinded independent centralized raters",5.79 point
same,treatment difference on SAPS-PD versus placebo,"[1]; 40 mg once daily oral, day 43, p=0.001",3.06 points
same,change in combined UPDRS II & III scores,"[1]; 40 mg once daily oral, mean change from baseline to day 43",−1.40
same,"motor function (UPDRS Parts II-III, non-inferiority versus placebo)","[1]; two-sided 95 percent CI of treatment difference, pre-specified margin of 5 points, day 43",did not worsen motor function
same,activity in DOI induced head twitches,[2],effective
same,attenuation of MK-801 induced hyperactivity,[3],effective
same,reversal of DOI induced sensory motor gating deficit,[4],potently reversed the gating deficit
same,disruption of learning of a simple auto-shaped response,[5],failed to disrupt learning
